Reference: PubChem BioAssay AID1918934 (Molecular Pharmacology Branch, DTP, NCI, 2023)

Test system: 292921-168-R-J2-PDC complex spheroid viability
Assay: Anticancer human tumor 292921-168-R-J2-PDC patient-derived pancreatic carcinoma cell line growth inhibition
Settings: for IC50: curve of first compound; for viability, T/C: stronger effect = lower value
Procedure, shortened: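 Drug combinations with the LSD1 inhibitor iadademstat tested on tumor cells co-cultured as spheroids with endothelial cells and mesenchymal stem cells. Concentrations descended in half-log increments from clinical Cmax or 10 microM.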

[1] = second compound 0.1 µM, first compound 0.000949 µM
[2] = second compound 0.1 µM, first compound 0.003 µM
[3] = second compound 0.1 µM, first compound 0.00949 µM
[4] = second compound 0.1 µM, first compound 0.03 µM
[5] = second compound 0.1 µM, first compound 0.0949 µM
[6] = second compound 0.1 µM, first compound 0.3 µM
[7] = second compound 0.316 µM, first compound 0.000949 µM
[8] = second compound 0.316 µM, first compound 0.003 µM
[9] = second compound 0.316 µM, first compound 0.00949 µM
[10] = second compound 0.316 µM, first compound 0.03 µM
[11] = second compound 0.316 µM, first compound 0.0949 µM
[12] = second compound 0.316 µM, first compound 0.3 µM
[13] = second compound 1 µM, first compound 0.000949 µM
[14] = second compound 1 µM, first compound 0.003 µM
[15] = second compound 1 µM, first compound 0.00949 µM
[16] = second compound 1 µM, first compound 0.03 µM
[17] = second compound 1 µM, first compound 0.0949 µM
[18] = second compound 1 µM, first compound 0.3 µM
[19] = second compound 3.16 µM, first compound 0.000949 µM
[20] = second compound 3.16 µM, first compound 0.003 µM
[21] = second compound 3.16 µM, first compound 0.00949 µM
[22] = second compound 3.16 µM, first compound 0.03 µM
[23] = second compound 3.16 µM, first compound 0.0949 µM
[24] = second compound 3.16 µM, first compound 0.3 µM
[25] = second compound 10 µM, first compound 0.000949 µM
[26] = second compound 10 µM, first compound 0.003 µM
[27] = second compound 10 µM, first compound 0.00949 µM
[28] = second compound 10 µM, first compound 0.03 µM
[29] = second compound 10 µM, first compound 0.0949 µM
[30] = second compound 10 µM, first compound 0.3 µM
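Note: seven day compound exposure before luminescent viability read.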
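Throughout, for viability, T/C: 100% = DMSO vehicle control wells.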

Compound: CC[C@@]1(O)C(=O)OCc2c1cc1n(c2=O)Cc2cc3c(CN(C)C)c(O)ccc3nc2-1 + NC1CCC(NC2CC2c2ccccc2)CC1
- IC50 (second compound 0.1 µM): 2.11 nM
- IC50 (second compound 0.316 µM): 1.65 nM
- IC50 (second compound 1 µM): 1.58 nM
- IC50 (second compound 3.16 µM): 1.07 nM
- IC50 (second compound 10 µM): 0.869 nM
- viability, T/C (second compound 0.1 µM, first compound 0.000316 µM): 64.5%
- viability, T/C (second compound 0.1 µM, first compound 0.001 µM): 60.2%
- viability, T/C (second compound 0.1 µM, first compound 0.00316 µM): 44.6%
- viability, T/C (second compound 0.1 µM, first compound 0.01 µM): 19.7%
- viability, T/C (second compound 0.1 µM, first compound 0.0316 µM): 8.14%
- viability, T/C (second compound 0.1 µM, first compound 0.1 µM): 4.05%
- viability, T/C (second compound 0.316 µM, first compound 0.000316 µM): 61.4%
- viability, T/C (second compound 0.316 µM, first compound 0.001 µM): 61%
- viability, T/C (second compound 0.316 µM, first compound 0.00316 µM): 37.9%
- viability, T/C (second compound 0.316 µM, first compound 0.01 µM): 18.5%
- viability, T/C (second compound 0.316 µM, first compound 0.0316 µM): 8.83%
- viability, T/C (second compound 0.316 µM, first compound 0.1 µM): 4.07%
- viability, T/C (second compound 1 µM, first compound 0.000316 µM): 61.2%
- viability, T/C (second compound 1 µM, first compound 0.001 µM): 56.4%
- viability, T/C (second compound 1 µM, first compound 0.00316 µM): 40.9%
- viability, T/C (second compound 1 µM, first compound 0.01 µM): 19.4%
- viability, T/C (second compound 1 µM, first compound 0.0316 µM): 10.6%
- viability, T/C (second compound 1 µM, first compound 0.1 µM): 4.35%
- viability, T/C (second compound 3.16 µM, first compound 0.000316 µM): 54.9%
- viability, T/C (second compound 3.16 µM, first compound 0.001 µM): 50.8%
- viability, T/C (second compound 3.16 µM, first compound 0.00316 µM): 38.2%
- viability, T/C (second compound 3.16 µM, first compound 0.01 µM): 18.5%
- viability, T/C (second compound 3.16 µM, first compound 0.0316 µM): 8.6%
- viability, T/C (second compound 3.16 µM, first compound 0.1 µM): 3.74%
- viability, T/C (second compound 10 µM, first compound 0.000316 µM): 51.4%
- viability, T/C (second compound 10 µM, first compound 0.001 µM): 50.9%
- viability, T/C (second compound 10 µM, first compound 0.00316 µM): 36.9%
- viability, T/C (second compound 10 µM, first compound 0.01 µM): 15.6%
- viability, T/C (second compound 10 µM, first compound 0.0316 µM): 8.03%
- viability, T/C (second compound 10 µM, first compound 0.1 µM): 3.69%

Compound: CCc1c2c(nc3ccc(O)cc13)-c1cc3c(c(=O)n1C2)COC(=O)[C@]3(O)CC + NC1CCC(NC2CC2c2ccccc2)CC1
- IC50 (second compound 0.1 µM): < 0.949 nM
- IC50 (second compound 0.316 µM): < 0.949 nM
- IC50 (second compound 1 µM): < 0.949 nM
- IC50 (second compound 3.16 µM): < 0.949 nM
- IC50 (second compound 10 µM): < 0.949 nM
- viability, T/C [1]: 5.27%
- viability, T/C [2]: 3.61%
- viability, T/C [3]: 1.77%
- viability, T/C [4]: 0.99%
- viability, T/C [5]: 0.98%
- viability, T/C [6]: 1.08%
- viability, T/C [7]: 5.76%
- viability, T/C [8]: 4.37%
- viability, T/C [9]: 1.62%
- viability, T/C [10]: 0.85%
- viability, T/C [11]: 0.86%
- viability, T/C [12]: 1.09%
- viability, T/C [13]: 5.78%
- viability, T/C [14]: 3.94%
- viability, T/C [15]: 1.33%
- viability, T/C [16]: 0.71%
- viability, T/C [17]: 0.85%
- viability, T/C [18]: 0.78%
- viability, T/C [19]: 6.37%
- viability, T/C [20]: 3.93%
- viability, T/C [21]: 1.39%
- viability, T/C [22]: 0.55%
- viability, T/C [23]: 0.97%
- viability, T/C [24]: 0.91%
- viability, T/C [25]: 4.96%
- viability, T/C [26]: 3.66%
- viability, T/C [27]: 0.99%
- viability, T/C [28]: 0.7%
- viability, T/C [29]: 0.8%
- viability, T/C [30]: 0.74%

Compound: Nc1ccn(C2OC(CO)C(O)C2(F)F)c(=O)n1 (stereo not given) + NC1CCC(NC2CC2c2ccccc2)CC1
- IC50 (second compound 0.1 µM): < 0.949 nM
- IC50 (second compound 0.316 µM): < 0.949 nM
- IC50 (second compound 1 µM): < 0.949 nM
- IC50 (second compound 3.16 µM): < 0.949 nM
- IC50 (second compound 10 µM): < 0.949 nM
- viability, T/C [1]: 27.8%
- viability, T/C [2]: 9.83%
- viability, T/C [3]: 8.07%
- viability, T/C [4]: 6.88%
- viability, T/C [5]: 7.25%
- viability, T/C [6]: 6.85%
- viability, T/C [7]: 28.2%
- viability, T/C [8]: 11.6%
- viability, T/C [9]: 6.99%
- viability, T/C [10]: 6.4%
- viability, T/C [11]: 8.06%
- viability, T/C [12]: 7.6%
- viability, T/C [13]: 21.8%
- viability, T/C [14]: 10.7%
- viability, T/C [15]: 8.29%
- viability, T/C [16]: 7.78%
- viability, T/C [17]: 8.71%
- viability, T/C [18]: 7.52%
- viability, T/C [19]: 22.2%
- viability, T/C [20]: 10.4%
- viability, T/C [21]: 8.35%
- viability, T/C [22]: 7.52%
- viability, T/C [23]: 8.12%
- viability, T/C [24]: 8.1%
- viability, T/C [25]: 23.4%
- viability, T/C [26]: 10.2%
- viability, T/C [27]: 9%
- viability, T/C [28]: 9.62%
- viability, T/C [29]: 8.3%
- viability, T/C [30]: 9.08%
